Each structure is given as a SMILES string. Values joined by “and” are separate entries in the source; they are usually repeats but may differ in a detail not shown here. Identical values can stand only once.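 Briefly, cells in 96-well plates were exposed to five compound concentrations for 48 h, and endpoints were estimated by linear interpolation. The concentration for 50% growth inhibition is given as GI50. The concentration for full growth arrest is given as TGI.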 *1 amine or outer side, *2 acyl side, *3 side chain or, on linkers, in order; H or OH if unused. Where a SMILES comes first, the peptide text is derived from it. Bridges are numbered along the chain shown (N, C = ends). [ ]: non-standard residue; d: D form. The star is where a group is joined. X19 = O=C([C@H](N[*:1])c1ccc(O[C@H]2O[C@@H](CO)[C@@H](O)[C@@H](O)[C@H]2O[C@@H]2O[C@H](CO)[C@H](O)[C@H](O)[C@@H]2O)cc1)[*:2]; X18 = NC(=O)[C@@H](O[*:3])[C@H](N[*:1])C(=O)[*:2]; X20 = O=C([C@H](N[*:1])c1ccc(O)c(Cl)c1)[*:2]; d(aThr) = C[C@@H](O)[C@@H](N)C(=O)O; dHpg = N[C@@H](C(=O)O)c1ccc(O)cc1; X17 = CC(C)C/C=C/C=C/C(=O)*; dOrn = NCCC[C@@H](N)C(=O)O A value given as a limit tells only on which side of the number the result lay.

The subject of this experiment is MDA-MB-468 breast. Description: NCI tumour cell line growth inhibition, 48 h.

In the case of `COc1ccc(Cl)cc1NC(=O)c1c(NC(=O)C(F)(F)C(F)(F)F)sc2c1CCCCC2`, the GI50 was 0.765 µM and the TGI is 4.68 µM.
`Cc1cccc2c1O/C(=C\c1ncc([N+](=O)[O-])n1C)C2=O`: the GI50 is 1.41 µM and the TGI was determined as 4.01 µM.
Regarding `CC1OC(O[C@H]2/C=C/C=C/C=C/C=C/C=C/C=C/C=C/[C@H](C)[C@@H](O)[C@@H](C)[C@H](C)OC(=O)C[C@H](O)C[C@H](O)CC[C@@H](O)[C@H](O)C[C@H](O)C[C@]3(O)C[C@H](O)[C@@H](C(=O)O)[C@H](C2)O3)C(O)C(N)C1O` (some centres undefined), the GI50 was 53.3 µM and the TGI is greater than 100 µM.
For `Cc1ccc2c(N/N=C\c3ccco3)cc(C)nc2n1`, in that order: 2.68 µM and 7.47 µM.
The like results for `CC(C)C/C=C/C=C/C(=O)N[C@@H](CC(N)=O)C(=O)N[C@@H]1C(=O)N[C@H](c2ccc(O)cc2)C(=O)N[C@H](CCCN)C(=O)N[C@H]([C@@H](C)O)C(=O)N[C@H](c2ccc(O)cc2)C(=O)N[C@H](c2ccc(O)cc2)C(=O)N[C@H]([C@H](C)O)C(=O)N[C@H](Cc2ccccc2)C(=O)N[C@H](CCCN)C(=O)N[C@H](c2ccc(O[C@H]3O[C@@H](CO)[C@@H](O)[C@@H](O)[C@H]3O[C@@H]3O[C@H](CO)[C@H](O)[C@H](O)[C@@H]3O)cc2)C(=O)N[C@H]([C@H](C)O)C(=O)N[C@H](c2ccc(O)cc2)C(=O)NCC(=O)N[C@H](CC(C)C)C(=O)N[C@H](C)C(=O)N[C@H](c2ccc(O)c(Cl)c2)C(=O)O[C@@H]1C(N)=O` (X17-N[X18][dHpg][dOrn][d(aThr)][dHpg][dHpg][dT][dF][dOrn][X19][dT][dHpg]G[dL][dA][X20]; ester 2-C) were, in that order, 19.7 µM and 56.7 µM.
With `CCC1CCCCN1C(=S)N/N=C(\C)c1ccccn1` (centres undefined), the GI50 was less than 0.0153 µM and the TGI was determined as 0.503 µM.
For `Oc1ccc2ccccc2c1N=Nc1ccccn1`, in that order: 1.41 µM and 4.89 µM.
Take `NC(=O)c1cc(Cl)ccc1NC(=O)c1ccccc1-c1ccccc1`: the GI50 is 0.448 µM and the TGI was found to be 48.7 µM.
For `O=C1/C(=C/c2ccccc2)CN(CCC(=O)N2C/C(=C\c3ccccc3)C(=O)/C(=C/c3ccccc3)C2)C/C1=C\c1ccccc1`, in that order: 9.33 µM and 42.8 µM.
For the compound `N#C/C(=C/C=C/c1ccccc1)S(=O)c1ccccc1` (centres undefined), the GI50 was 0.274 µM and the TGI is 0.987 µM.
For `COc1cc(/C=C2\CN(S(=O)(=O)c3ccc(C)cc3)C/C(=C\c3cc(CN4CCCCC4)c(O)c(OC)c3)C2=O)cc(CN2CCCCC2)c1O`, in that order: 1.94 µM and 3.99 µM.
The like results for `COc1ccc(-c2csc(NC(=O)N3CCN(c4cc5c(cc4F)c(=O)c(C(=O)O)cn5C4CC4)CC3)n2)cc1` were, in that order, 1.14 µM and 8.13 µM.
`Cc1nn(-c2ccccc2)c2ncnc(N/N=C/c3ccccc3O)c12`: the GI50 is 1.56 µM and the TGI amounted to 8.59 µM.
For the compound `Cc1cccc2c1NC(=O)[C@@]21[C@H](C(=O)c2ccccc2)[C@]2(C(=O)Nc3ccccc32)[C@H]2CCCN21`, the GI50 is 22.3 µM and the TGI is greater than 100 µM.
The like results for `O=C1CCC2=C3C4CCCCC4C(=O)C4CCCC(OC2C1)C34` (centres undefined) were, in that order, 1.87 µM and 5.2 µM.
The like results for `CCC(c1ccc(OC)cc1)C(CC)c1ccc(O)c(CN2CCCC2)c1` (centres undefined) were, in that order, 1.62 µM and 3.69 µM.
The like results for `CC(C)(C)N1CC(OC(N)=O)C1` were, in that order, greater than 100 µM and greater than 100 µM.
On to `O=c1ccccc(-c2ccc(-c3ccco3)cc2)c1O`, for which the GI50 was 0.32 µM and the TGI was determined as 3.3 µM.
For `C=C1SC(=Nc2ccccc2Cl)N(C(=O)c2sc3ccccc3c2Cl)C1(C)C`, in that order: 12.6 µM and greater than 100 µM.
As to `O=S(=O)(NCCCNc1cc(-c2cn(-c3ccccc3)nc2-c2cccc(O)c2)ccn1)c1cccc2ccccc12`, the GI50 was 1.85 µM and the TGI was 6.01 µM.
As to `O=C1/C(=C/c2ccccc2Br)COc2ccc(O)c(O)c21`, the GI50 was 1.65 µM and the TGI amounted to 3.94 µM.
The like results for `COc1cccc(-c2nc(-c3ccc(NC(=O)c4ccccc4)cc3)[nH]c2-c2ccnc(Br)c2)c1` were, in that order, 2.87 µM and greater than 100 µM.
For `COc1cc(C)[nH]c(=O)c1CN1CCc2c(Cl)cc([C@H](OC)C3COC3)c(Cl)c2C1=O`, in that order: greater than 100 µM and greater than 100 µM.
For `O=C(Nc1ccc(Cl)cc1)c1cc2cc(F)ccc2cc1O`, in that order: 2.47 µM and 6.17 µM.
With `COc1c(B(O)O)cccc1-c1nc2c(F)cc3[nH]ncc3c2c2c1CCCC2`, the GI50 is 1.06 µM and the TGI was 3.69 µM.
The like results for `CCn1cc(C(=O)N/N=C/c2cccc(F)c2)c(=O)c2cc(F)c(N3CCNC(C)C3)c(F)c21` (centres undefined) were, in that order, 1.64 µM and 3.18 µM.
For `COc1ccccc1N1CCN(C(=O)c2ccc(NS(=O)(=O)c3cccc4cccnc34)cc2)CC1`, in that order: greater than 28.9 µM and greater than 100 µM.
Regarding `O=C1c2cccc3cc([N+](=O)[O-])cc(c23)C(=O)N1CCN1CCCC1`, the GI50 is 0.605 µM and the TGI worked out at 2.44 µM.
The like results for `CCCCNC(=O)Oc1ccc2c(=O)c3sc4c(=O)c5ccccc5c(=O)c4c3c(=O)c2c1` were, in that order, 1.45 µM and 3.39 µM.
`COC(=O)c1cc2c3c(cc(O)c2[nH]1)N(C(=O)C1Cc2cc(OC)c(OC)c(OC)c2N1)CC3CCl` (centres undefined): the GI50 was less than 0.01 µM and the TGI is less than 0.01 µM.
In the case of `O=C(O[C@H]1CN[C@H](C#Cc2cc3ncnc(Nc4ccc(OCc5cccc(F)c5)c(Cl)c4)c3s2)C1)N1CCOCC1`, the GI50 was 0.391 µM and the TGI was determined as 4.78 µM.
The like results for `O=C(NC1CCN(Cc2ccccc2)CC1)c1cc(C(=O)NC2CCN(Cc3ccccc3)CC2)cc(C(=O)NC2CCN(Cc3ccccc3)CC2)c1` were, in that order, 0.866 µM and 1.89 µM.
For `COc1cc2c(Nc3ccc(Br)cc3F)ncnc2cc1OCC1CCN(C)CC1`, the GI50 was 0.455 µM and 0.452 µM; the TGI is 2.57 µM and 3.53 µM.
With `CNC(=O)c1cncc(/C=C/c2c(C)cccc2C)c1`, the GI50 is greater than 22.7 µM and the TGI is greater than 25 µM.
For `O=C1/C=C/[C@@H](O)[C@@H]2C[C@@H](O)C[C@H]2/C=C/CCC[C@H](CO)O1`, in that order: 0.419 µM and 2.77 µM.
For the compound `N/C(=N\c1nc2ccccc2s1)NC(=O)Nc1ccccc1Cl`, the GI50 is 0.317 µM and the TGI is 5.92 µM.
Regarding `COc1cc([C@@H]2c3cc4c(cc3[C@H](OC(C)=O)[C@H]3COC(=O)[C@H]23)OCO4)cc(OC)c1OC`, the GI50 is 0.0295 µM and the TGI was greater than 100 µM.
The like results for `C[C@@H](Oc1cc(NS(=O)(=O)N2CCC2)nc(SCc2cccc(F)c2F)n1)[C@@H](O)CO` were, in that order, greater than 100 µM and greater than 100 µM.
The like results for `Cc1cc(C(NC(=O)CCCCCNc2cccc3c2C(=O)N(C2CCC(=O)NC2=O)C3=O)c2cccnc2)c(O)c2ncccc12` (centres undefined) were, in that order, less than 0.01 µM and 0.0328 µM.
Take `C#Cc1cccc(Nc2ncnc3ccc(-c4cnc(Cl)c(NS(C)(=O)=O)c4)cc23)c1`: the GI50 was 0.178 µM and the TGI was found to be 0.88 µM.
For `COc1ccc([C@@H]2[C@@H](O)C(=O)N2c2cc(OC)c(OC)c(OC)c2)cc1`, in that order: 0.0243 µM and 0.0677 µM.
The like results for `CN(C)CCCN=c1cc2c(=O)n(CCCN(C)C)c(=O)c3c(NCCCN(C)C)cc4c(O)n(CCCN(C)C)c(=O)c1c4c3-2` were, in that order, 1.3 µM and 3.58 µM.

(Values after PubChem BioAssay (NCI).)
